Data taken from patent publication USRE38169E1, “Hyperstabilizing antisense nucleic acid binding agents” (priority 1993, dated 2003).

Legend:
[1] = tested on: Salmon Sperm DNA; assay: Binding of drug to duplex (NACS column); conditions: saturation; initial CC-1065/nucleotide 0.1; 37° C., 4 hr
Protocol: (§1) Oligodeoxyribonucleotides were obtained by chemical synthesis through standard techniques on an automated synthesizer located in the Department of Veterinary Microbiology and Parasitology at Louisiana State University. Antisense MP and PS oligonucleotides were obtained from commercial sources, as was synthetic sense RNA. Poly(rA) was obtained from Sigma Chemical Co. CC-1065 was obtained from the Upjohn Company. Oligonucleotides (0.075 μmol-P each) were mixed in 0.36 ml 0.01 M Na cacodylate buffer, pH 7.2, with CC-1065 in dimethyl formamide (0.04 ml), or with dimethylformamide only. (Note that “μmol-P” denotes μmoles of phosphate; i.e., μmoles of nucleotide bases, rather than of oligonucleotides per se.) Incubations of complementary strands, with or without drug, were carried out at 37° C. for 4 hr. In the initial experiments, unbound drug was separated from nucleotide duplexes by ethanol precipitation. Equivalent results were obtained by trapping the oligonucleotides and CC-1065 on NACS-52 columns, and washing first with low-salt buffer and then with buffer containing 1M NaCl. […] Samples prepared in this manner could be directly used for determination of binding of the drug to the nucleic acid (as measured by the A365/A260 ratio), with the extinction of CC-1065 absorbance at 365 nm taken as 48,000, and the extinction of the nucleic acid absorption at 260 nm based on its composition. […]

[2] = tested on: DNA sense (SEQ ID NO. 1) / DNA-PO antisense duplex (PO-PO); assay: Duplex strand separation temperature (Tm); type: binding, equine infectious anemia retrovirus
Protocol: (§2) Samples for determining Tm were also obtained by the above procedures. […] Thus the effects of this agent on Tm were carried out with Distamycin in solution with the duplexes tested.
(§3) Tm's were determined on a Gilford 2400 Spectrophotometer set at 260 nm, with a 4-chamber Peltier-based temperature controller. Temperature was ramped linearly at 0.5° C./min. Absorbance data were acquired with a 12-bit A/D converter, and data were processed with Lotus 123W and SigmaPlot software. Tm values were determined from the plots as the midpoint of the thermal transitions.

[3] = tested on: DNA sense (SEQ ID NO. 1) / DNA-MP antisense duplex (PO-MP); assay: Duplex strand separation temperature (Tm); type: binding, equine infectious anemia retrovirus
Protocol: as §2, §3

[4] = tested on: DNA sense (SEQ ID NO. 1) / DNA-PS antisense duplex; assay: Duplex strand separation temperature (Tm); type: binding, equine infectious anemia retrovirus
Protocol: as §2, §3

[5] = tested on: calf thymus DNA; conditions: reported, cited from earlier work
[6] = tested on: DNA sense (SEQ ID NO. 1) / DNA-PS antisense duplex (PO-PS); assay: Binding of drug to duplex (NACS column, A365/A260); parameters: species or system equine infectious anemia retrovirus; conditions: for Final D/N (CC-1065/nucleotide) Bound to Duplex: PO-PS
Protocol: (§4) Oligodeoxyribonucleotides were obtained by chemical synthesis through standard techniques on an automated synthesizer located in the Department of Veterinary Microbiology and Parasitology at Louisiana State University. Antisense MP and PS oligonucleotides were obtained from commercial sources, as was synthetic sense RNA. Poly(rA) was obtained from Sigma Chemical Co. CC-1065 was obtained from the Upjohn Company. Oligonucleotides (0.075 μmol-P each) were mixed in 0.36 ml 0.01 M Na cacodylate buffer, pH 7.2, with CC-1065 in dimethyl formamide (0.04 ml), or with dimethylformamide only. (Note that “μmol-P” denotes μmoles of phosphate; i.e., μmoles of nucleotide bases, rather than of oligonucleotides per se.) Incubations of complementary strands, with or without drug, were carried out at 37° C. for 4 hr. In the initial experiments, unbound drug was separated from nucleotide duplexes by ethanol precipitation. Equivalent results were obtained by trapping the oligonucleotides and CC-1065 on NACS-52 columns, and washing first with low-salt buffer and then with buffer containing 1M NaCl. Unbound CC-1065 was completely retained on the column. […] Samples prepared in this manner could be directly used for determination of binding of the drug to the nucleic acid (as measured by the A365/A260 ratio), with the extinction of CC-1065 absorbance at 365 nm taken as 48,000, and the extinction of the nucleic acid absorption at 260 nm based on its composition. Similar approaches were used with the drug U-71,184, with an assumed extinction of 32,000 at 365 nm.
(§5) When methyl phosphonate and synthetic RNA were used, the purities of the crude oligonucleotides were taken to be about 30%, based on the data sheet prepared by the supplier. (The remainder comprised primarily truncated sequences.) Appropriate excess amounts of these agents were included in the reactions to ensure helix formation. The corresponding sense or antisense oligonucleotides were maintained at 0.075 μmol-P in the reaction. […] Unpurified materials were used in these preliminary studies because of the relatively high cost of purified oligoribonucleotides. The majority of the contributions to A260 for these samples should be due to material that was not duplexed.
(§6) Table 1 summarizes binding data obtained from incubations of CC-1065 with nucleotides at greater than stoichiometric levels; the levels used in these experiments were 1 drug molecule/10 nucleotide residues, which is equivalent to 4 drug molecules/20-mer duplex. […] There seemed to be no difference in drug binding between antisense oligonucleotides with a PO and those with a PS backbone. Again, the 5′-AGTTA-3′ sequence on the sense strand was presumably the primary target, and the 3′-AAGTA-5′ on the antisense probe was presumably the secondary target.

[7] = tested on: DNA sense (SEQ ID NO. 1) / DNA-MP antisense duplex (PO-MP); assay: Binding of drug to duplex (NACS column, A365/A260); parameters: species or system equine infectious anemia retrovirus; conditions: for Final D/N (CC-1065/nucleotide) Bound to Duplex: PO-MP
Protocol: as §4, §5, §6

[8] = tested on: DNA sense (SEQ ID NO. 1) / DNA-PO antisense (SEQ ID NO. 2) duplex (PO-PO); assay: Binding of drug to duplex (NACS column, A365/A260); parameters: species or system equine infectious anemia retrovirus; conditions: for Final D/N (CC-1065/nucleotide) Bound to Duplex: PO-PO
Protocol: as §4, §5, §6

[9] = tested on: RNA sense / DNA-PO antisense duplex; assay: Binding of drug to duplex (NACS column); parameters: species or system equine infectious anemia retrovirus; conditions: saturation; initial CC-1065/nucleotide 0.1; 37° C., 4 hr
Protocol: as §1

[10] = tested on: RNA sense / DNA-PS antisense duplex; assay: Binding of drug to duplex (NACS column); parameters: species or system equine infectious anemia retrovirus; conditions: saturation; initial CC-1065/nucleotide 0.1; 37° C., 4 hr
Protocol: as §1

[11] = tested on: Oligo dA - Oligo dT; assay: Duplex strand separation temperature (Tm); type: binding
Protocol: as §2, §3

[12] = tested on: Poly rA - Oligo dT (PO); assay: Duplex strand separation temperature (Tm); type: binding
Protocol: as §2, §3

[13] = CC-1065 initial D/N = 0.1, minimum Tm estimate
[14] = saturation, initial CC-1065/nucleotide 0.1, 37° C., 4 hr
[15] = CC-1065 initial D/N = 0.025, regions lacking CC-1065
[16] = CC-1065 initial D/N = 0.025, regions with CC-1065

With `COc1c(O)c2c(c3cc(C(=O)N4CCc5c4c(O)c(OC)c4[nH]c(C(=O)N6CC7CC78C6=CC(=O)c6[nH]cc(C)c68)cc54)[nH]c13)CCN2C(N)=O` (stereo not shown) [CC-1065] the “Approx. No. CC-1065 Bound/20 Base Pairs” value [1] was roughly 2, the Tm ([2]; CC-1065 initial D/N = 0.025, 1M NaCl eluate) was 81.7 ± 0.6^4 °C and the Tm ([2]; CC-1065 initial D/N = 0.1, minimum Tm estimate (melting not completed)) was ≥ 85.3 ± 2.3^4,5 °C. For the same molecule, the “Duplex Strand Separation Temperature” value ([2]; DNA / DNA-PO, drug-bound duplex (Table 6)) was ≥ 85.3 ± 2.3^4, the “Tm Elevation” value ([2]; PO-PO, highest level of binding obtained) was 17.3 °C and the Tm ([3]; CC-1065 initial D/N = 0.025) was 73.0 ± 2.0^4 °C. For the same molecule, the Tm ([3]; CC-1065 initial D/N = 0.1) was 74.0 ± 1.0^4 °C, the “Duplex Strand Separation Temperature” value ([3]; DNA / DNA-MP, drug-bound duplex (Table 6)) was 74.0 ± 1.04 and the “Tm Elevation” value ([3]; PO-MP, highest level of binding obtained) was 21.5 °C. For the same molecule, the Tm ([4]; CC-1065 initial D/N = 0.025) was 81.3 ± 2.3^4 °C, the Tm [4, 13] was ≥ 84.7 ± 1.5^4,5 °C and the “Duplex Strand Separation Temperature” value ([4]; DNA / DNA-PS, drug-bound duplex (Table 6)) was ≥ 84.7 ± 1.5^4. For the same molecule, the “Tm Elevation” value ([4]; PS-PS, highest level of binding obtained) was 20.5 °C, the Tm ([5]; CC-1065 bound) was roughly 100 °C and the “Increase in Tm” value ([5]; under the conditions of the experiment) was “over 30 °C”. For the same molecule, the “Final D/N (CC-1065/nucleotide) Bound to Duplex” value ([6]; Initial D/N 0.01) was 0.010 ± 0, the “Final D/N (CC-1065/nucleotide) Bound to Duplex” value ([6]; Initial D/N 0.025) was 0.024 ± 0.0005 and the “Final D/N (CC-1065/nucleotide) Bound to Duplex” value ([6]; Initial D/N 0.04) was 0.032 ± 0.001. The “Final D/N (CC-1065/nucleotide) Bound to Duplex” value ([6]; Initial D/N 0.065) was 0.047 ± 0.0005, the “Final D/N (CC-1065/nucleotide) Bound to Duplex” value ([6]; Initial D/N 0.10) was 0.049 ± 0 and the “Approx. No. CC-1065 Bound/20 Base Pairs” value [6, 14] was roughly 2. The “Estimate of drug bound per duplex by titration with a range of MP” value ([7]; MP antisense oligonucleotides) was “# With MP antisense oligonucleotides, titration with a range of MP gave an estimate of 1 molecule bound per duplex. Precipitation with NaCl and EtOH gave similar results, but recoveries were lower. Single-strand components did not bind CC-1065”, the “Binding for MP antisense sequences” value ([7]; MP antisense sequences) was “about 1 drug molecule/duplex” and the “Final D/N (CC-1065/nucleotide) Bound to Duplex” value ([7]; Initial D/N 0.025) was 0.016 ± 0.0008. The “Final D/N (CC-1065/nucleotide) Bound to Duplex” value ([7]; Initial D/N 0.04, single determination) was 0.019^4, the “Final D/N (CC-1065/nucleotide) Bound to Duplex” value ([7]; Initial D/N 0.10) was 0.031 ± 0.001 and the “Approx. No. CC-1065 Bound/20 Base Pairs” value [7, 14] was roughly 1. The “Final D/N (CC-1065/nucleotide) Bound to Duplex” value ([8]; Initial D/N 0.01) was 0.009 ± 0.0004, the “Final D/N (CC-1065/nucleotide) Bound to Duplex” value ([8]; Initial D/N 0.025) was 0.021 ± 0.001 and the “Final D/N (CC-1065/nucleotide) Bound to Duplex” value ([8]; Initial D/N 0.04) was 0.030 ± 0.0004. For the same molecule, the “Final D/N (CC-1065/nucleotide) Bound to Duplex” value ([8]; Initial D/N 0.065) was 0.049 ± 0.001, the “Final D/N (CC-1065/nucleotide) Bound to Duplex” value ([8]; Initial D/N 0.10) was 0.053 ± 0.002 and the “Approx. No. CC-1065 Bound/20 Base Pairs” value ([8]; saturation, initial CC-1065/nucleotide 0.1 (4 drug molecules per duplex), 37° C., 4 hr) was roughly 2. For the same molecule, the “Approx. No. CC-1065 Bound/20 Base Pairs” value [9] was roughly 1, the “Approx. No. CC-1065 Bound/20 Base Pairs” value [10] was roughly 1 and the “Tm, lower transition of biphasic curve” value [11, 15] was 50 °C. The “Tm, higher transition of biphasic curve” value [11, 16] was 85 °C, the Tm [11, 13] was ≥ 85.5 ± 0.7^4,5 °C and the “Duplex Strand Separation Temperature” value ([11]; Oligo dA / Oligo dT, drug-bound duplex (Table 6)) was ≥ 85.5 ± 0.7^4. The “Tm Elevation” value ([11]; dA-dT, highest level of binding obtained) was 28.5 °C, the “Tm, lower transition of biphasic curve” value [12, 15] was 51 °C and the “Tm, higher transition of biphasic curve” value [12, 16] was 76 °C. For the same molecule, the Tm [12, 13] was ≥ 81.3 ± 0.6^4,5 °C, the “Duplex Strand Separation Temperature” value ([12]; Poly rA / Oligo dT (PO), drug-bound duplex (Table 6)) was ≥ 81.3 ± 0.6^4 and the “Stabilization of duplexes” value ([12]; poly(rA)-oligo(dT)) was “strong stabilization”. The “Tm Elevation” value ([12]; rA-dT, highest level of binding obtained) was 28.3 °C.
